Structures can show the parent of a compound that is named as a salt.

For orientation: EC50 means the concentration giving half of the maximal effect. Higher therefore signals lower potency in that assay.

This assay deals with T1, human S1P1 receptor (Homo sapiens, UniProt P21453).
T1 construct: expressed in transfected cells; membranes
T1 sequence (P21453 whole entry): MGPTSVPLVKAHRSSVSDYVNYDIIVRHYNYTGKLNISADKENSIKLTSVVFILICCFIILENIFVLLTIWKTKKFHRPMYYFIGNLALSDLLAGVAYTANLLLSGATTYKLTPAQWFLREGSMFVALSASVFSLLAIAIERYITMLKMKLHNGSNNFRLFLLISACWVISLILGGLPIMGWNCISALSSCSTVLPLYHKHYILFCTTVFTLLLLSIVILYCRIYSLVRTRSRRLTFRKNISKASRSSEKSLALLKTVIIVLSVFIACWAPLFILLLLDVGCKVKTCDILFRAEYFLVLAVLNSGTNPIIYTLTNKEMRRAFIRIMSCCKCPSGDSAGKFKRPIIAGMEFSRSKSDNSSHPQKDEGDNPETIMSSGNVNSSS
Briefly: S1P1 GTPγS assay. In kind it is biochemical. As to conditions: agonist activity, [35S]-GTPγS binding, human S1P1 rat hepatoma membranes. The method, then: (§1) For membrane preparations all steps were performed at 4° C. Rat hepatoma cells stably expressing the human S1P1 receptor or Rat Basophilic Leukaemia cells (RBL) stably expressing human S1P3 receptor were grown to 80% confluency before being harvested into 10 ml Phospho-Buffered Saline (PBS) and centrifuged at 1200 rpm for 5 minutes. After removal of the supernatant, the pellet was re-suspended and cells were homogenised within a glass Waring blender for 2 bursts of 15 secs in 200 mls of buffer (50 mM HEPES, 1 mM leupeptin, 25 μg/ml bacitracin, 1 mM EDTA, 1 mM PMSF, 2 μM pepstatin A). The blender was plunged into ice for 5 mins after the first burst and 10-40 mins after the final burst to allow foam to dissipate. The material was then spun at 500 g for 20 mins and the supernatant spun for 36 mins at 48,000 g. The pellet was resuspended in the same buffer as above but without PMSF and pepstatin A. The material was then forced through a 0.6 mm needle, made up to the required volume, (usually ×4 the volume of the original cell pellet), aliquoted and stored frozen at −80° C.
as §1, with “All” for “For membrane preparations all”, “Cells” for “Rat hepatoma cells stably expressing the human S1P1 receptor or Rat Basophilic Leukaemia cells (RBL) stably expressing human S1P3 receptor were grown to 80% confluency before being harvested into 10 ml Phospho-Buffered Saline (PBS) and centrifuged at 1200 rpm for 5 minutes. After removal of the supernatant, the pellet was re-suspended and cells”
Human S1P1 rat hepatoma membranes (1.5 μg/well) were adhered to a wheatgerm agglutinin (WGA)-coated scintillation proximity assay (SPA) beads (0.125 mg/well) in assay buffer (HEPES 20 mM, MgCl2 10 mM, NaCl 100 mM and pH adjusted to 7.4 using KOH 5M, GDP 10 μM FAC (final assay concentration) and saponin 90 μg/ml FAC was also added).
After 30 minutes pre-coupling on ice the bead and membrane suspension was dispensed into a white Greiner polypropylene LV384-well plate ([…]), containing 0.1 μl of the compound. 5 μl/well [^355]-GTPγS (0.5 nM final radioligand conc) made up in assay buffer was then added to agonist plates. The final assay cocktail (10.1 μl) was then centrifuged at 1000 rpm for 5 minutes then read immediately on a Viewlux reader.
All test compounds were dissolved in DMSO at a concentration of 10 mM and were prepared in 100% DMSO using a 1 in 4 dilution step to provide 11 point dose response curves. The dilutions were transferred to the assay plates ensuring that the DMSO concentration was constant across the plate for all assays.
All data was normalized to the mean of 16 high and 16 low control wells on each plate. A four parameter curve fit was then applied.
S1P1 expressing RH7777 membranes (1.5 μg/well) membranes (1.5 μg/well) were homogenised by passing through a 23G needle. These were then adhered to WGA-coated SPA beads (0.125 mg/well) in assay buffer (HEPES 20 mM, MgCl2 10 mM, NaCl 100 mM and pH adjusted to 7.4 using KOH 5M). GDP 10 μM FAC and saponin 90 μg/ml FAC were also added
After 30 minutes precoupling on ice, the bead and membrane suspension was dispensed into white Greiner polypropylene LV 384-well plates (5 μl/well), containing 0.1 μl of compound. 5 μl/well [^35S]-GTPγS (0.5 nM for S1P1 or 0.3 nM for S1P3 final radioligand concentration) made in assay buffer was then added to the plates. The final assay cocktail (10.1 μl) was then sealed, spun on a centrifuge, then read immediately on a Viewlux instrument.
(In general: GTPγS resists hydrolysis and so accumulates on activated G proteins.)
Molecule `CC(C)Oc1ccc(-c2nc(-c3cccc4c3OCCN(CCC(=O)O)C4)no2)cc1Cl` [Example 47, 3-[9-(5-{3-Chloro-4-[(1-methylethyl)oxy]phenyl}-1,2,4-oxadiazol-3-yl)-2,3-dihydro-1,4-benzoxazepin-4(5H)-yl]propanoic acid] showed an EC50 of under 100 nM.

Consider `CC(C)Oc1ccc(-c2nc(-c3ccc4c(c3)CCN(CC(=O)O)CC4)no2)cc1C(F)(F)F` [Example 24, (7-{5-[4-[(1-Methylethyl)oxy]-3-(trifluoromethyl)phenyl]-1,2,4-oxadiazol-3-yl}-1,2,4,5-tetrahydro-3H-3-benzazepin-3-yl)acetic acid], for which the EC50 was at most 10 nM.

`CC(C)Oc1ccc(-c2nc(-c3ccc4c(c3)CCCN(CCC(=O)O)C4)no2)cc1C#N` [Example 6, 3-[7-(5-{3-Cyano-4-[(1-methylethyl)oxy]phenyl}-1,2,4-oxadiazol-3-yl)-1,3,4,5-tetrahydro-2H-2-benzazepin-2-yl]propanoic acid hydrochloride]: the EC50 was under 100 nM.

With `CC(C)Oc1ccc(-c2nc(-c3cccc4c3OCCNC4)no2)cc1Cl` [Example 31, 9-(5-{3-Chloro-4-[(1-methylethyl)oxy]phenyl}-1,2,4-oxadiazol-3-yl)-2,3,4,5-tetrahydro-1,4-benzoxazepine hydrochloride], the EC50 was under 100 nM.

Consider `O=C(O)CN1CCc2ccc(-c3noc(-c4ccc(-c5ccccc5)c(C(F)(F)F)c4)n3)cc2CC1` [Example 25, (7-{5-[2-(Trifluoromethyl)-4-biphenylyl]-1,2,4-oxadiazol-3-yl}-1,2,4,5-tetrahydro-3H-3-benzazepin-3-yl)acetic acid], for which the EC50 is under 100 nM.

In turn, `CC(C)Oc1ccc(-c2nc(-c3ccc4c(c3)CCN(CCCC(=O)O)CC4)no2)cc1C#N` [Example 27, 4-[7-(5-{3-cyano-4-[(1-methylethyl)oxy]phenyl}-1,2,4-oxadiazol-3-yl)-1,2,4,5-tetrahydro-3H-3-benzazepin-3-yl]butanoic acid hydrochloride] had an EC50 of at most 10 nM.

On to `CC(C)Oc1ccc(-c2nc(-c3ccc4c(c3)CCN(CCCC(=O)O)CC4)no2)cc1Cl` [Example 26, 4-[7-(5-{3-Chloro-4-[(1-methylethyl)oxy]phenyl}-1,2,4-oxadiazol-3-yl)-1,2,4,5-tetrahydro-3H-3-benzazepin-3-yl]butanoic acid], for which the EC50 is at most 10 nM.

Molecule `CC(C)Oc1ncc(-c2nc(-c3ccc4c(c3)CCNCC4)no2)cc1C#N` [Example 48, 2-[(1-Methylethyl)oxy]-5-[3-(2,3,4,5-tetrahydro-1H-3-benzazepin-7-yl)-1,2,4-oxadiazol-5-yl]-3-pyridinecarbonitrile formate] gave an EC50 of under 100 nM.

In turn, `CC(C)Oc1ccc(-c2nc(-c3ccc4c(c3)CN(CCC(=O)O)CCO4)no2)cc1C#N` [Example 37, 3-[7-(5-{3-Cyano-4-[(1-methylethyl)oxy]phenyl}-1,2,4-oxadiazol-3-yl)-2,3-dihydro-1,4-benzoxazepin-4(5H)-yl]propanoic acid] had an EC50 of under 100 nM.

For the molecule `CC(C)Oc1ccc(-c2nc(-c3ccc4c(c3)CCN(CC(=O)O)CC4)no2)cc1C#N` [Example 23, [7-(5-{3-Cyano-4-[(1-methylethyl)oxy]phenyl}-1,2,4-oxadiazol-3-yl)-1,2,4,5-tetrahydro-3H-3-benzazepin-3-yl]acetic acid], the EC50 was at most 10 nM.

`CC(C)Oc1ccc(-c2nc(-c3cccc4c3OCCN(CCCC(=O)O)C4)no2)cc1C#N` [Example 34, 4-[9-(5-{3-Cyano-4-[(1-methylethyl)oxy]phenyl}-1,2,4-oxadiazol-3-yl)-2,3-dihydro-1,4-benzoxazepin-4(5H)-yl]butanoic acid] had an EC50 of under 100 nM.

`CC(C)Oc1ccc(-c2nc(-c3ccc4c(c3)CNCCO4)no2)cc1C#N` [Example 35, 2-[(1-Methylethyl)oxy]-5-[3-(2,3,4,5-tetrahydro-1,4-benzoxazepin-7-yl)-1,2,4-oxadiazol-5-yl]benzonitrile hydrochloride] showed an EC50 of under 100 nM.

`CC(C)Oc1ccc(-c2nc(-c3cccc4c3CCNCC4)no2)cc1Cl` [Example 8, 6-(5-{3-Chloro-4-[(1-methylethyl)oxy]phenyl}-1,2,4-oxadiazol-3-yl)-2,3,4,5-tetrahydro-1H-3-benzazepine hydrochloride] showed an EC50 of under 100 nM.

As to `CC(C)Oc1ccc(-c2nc(-c3cccc4c3OCCNC4)no2)cc1C#N` [Example 32, 2-[(1-Methylethyl)oxy]-5-[3-(2,3,4,5-tetrahydro-1,4-benzoxazepin-9-yl)-1,2,4-oxadiazol-5-yl]benzonitrile hydrochloride], the EC50 was under 100 nM.

`CC(C)Oc1ncc(-c2nc(-c3ccc4c(c3)CCN(CCCC(=O)O)CC4)no2)cc1Cl` [Example 50, 4-[7-(5-{5-Chloro-6-[(1-methylethyl)oxy]-3-pyridinyl}-1,2,4-oxadiazol-3-yl)-1,2,4,5-tetrahydro-3H-3-benzazepin-3-yl]butanoic acid]: the EC50 was under 100 nM.

On to `CC(C)Oc1ccc(-c2nc(-c3ccc4c(c3)CN(CCCC(=O)O)CCO4)no2)cc1C#N` [Example 39, 4-[7-(5-{3-Cyano-4-[(1-methylethyl)oxy]phenyl}-1,2,4-oxadiazol-3-yl)-2,3-dihydro-1,4-benzoxazepin-4(5H)-yl]butanoic acid], for which the EC50 was under 100 nM.

`O=C(O)CCCN1CCc2ccc(-c3noc(-c4ccc(-c5ccccc5)c(C(F)(F)F)c4)n3)cc2CC1` [Example 29, 4-(7-{5-[2-(Trifluoromethyl)-4-biphenylyl]-1,2,4-oxadiazol-3-yl}-1,2,4,5-tetrahydro-3H-3-benzazepin-3-yl)butanoic acid hydrochloride] gave an EC50 of under 100 nM.

`CC(C)Oc1ccc(-c2nc(-c3ccc4c(c3)CCN(CC(=O)O)CC4)no2)cc1Cl` [Example 22, [7-(5-{3-Chloro-4-[(1-methylethyl)oxy]phenyl}-1,2,4-oxadiazol-3-yl)-1,2,4,5-tetrahydro-3H-3-benzazepin-3-yl]acetic acid] gave an EC50 of under 100 nM.

`CC(C)Oc1ccc(-c2nc(-c3cccc4c3CCCN(CC(=O)O)C4)no2)cc1Cl` [Example 12, [6-(5-{3-Chloro-4-[(1-methylethyl)oxy]phenyl}-1,2,4-oxadiazol-3-yl)-1,3,4,5-tetrahydro-2H-2-benzazepin-2-yl]acetic acid hydrochloride]: the EC50 is under 100 nM.

Molecule `CC(C)Oc1ccc(-c2nc(-c3cccc4c3CCNCC4)no2)cc1C#N` [Example 7, 2-[(1-Methylethyl)oxy]-5-[3-(2,3,4,5-tetrahydro-1H-3-benzazepin-6-yl)-1,2,4-oxadiazol-5-yl]benzonitrile hydrochloride] showed an EC50 of at most 10 nM.

On to `CC(C)Oc1ccc(-c2nc(-c3ccc4c(c3)CCNCC4)no2)cc1C#N` [Example 18, 2-[(1-Methylethyl)oxy]-5-[3-(2,3,4,5-tetrahydro-1H-3-benzazepin-7-yl)-1,2,4-oxadiazol-5-yl]benzonitrile hydrochloride], for which the EC50 is under 100 nM.

Molecule `CC(C)Oc1ccc(-c2nc(-c3ccc4c(c3)CCN(CCC(=O)O)CC4)no2)cc1Cl` [Example 21, 3-[7-(5-{3-Chloro-4-[(1-methylethyl)oxy]phenyl}-1,2,4-oxadiazol-3-yl)-1,2,4,5-tetrahydro-3H-3-benzazepin-3-yl]propanoic acid] had an EC50 of at most 10 nM.

Molecule `CC(C)Oc1ccc(-c2nc(-c3cccc4c3OCCN(CCCC(=O)O)C4)no2)cc1Cl` [Example 33, 4-[9-(5-{3-Chloro-4-[(1-methylethyl)oxy]phenyl}-1,2,4-oxadiazol-3-yl)-2,3-dihydro-1,4-benzoxazepin-4(5H)-yl]butanoic acid] gave a 50% effective concentration (EC50) of under 100 nM.
